Results published in patent US20260124214A1, “HETEROCYCLIC COMPOUNDS FOR USE IN THE TREATMENT OF CANCER” (ARTIOS PHARMA LIMITED, priority 2021, published 2026).

Target: T1, Human Polθ polymerase domain (aa1820-2590) (Homo sapiens, UniProt O75417)
T1 construct: Human Polθ polymerase domain (aa1820-2590) was expressed in E. Coli; made in house; host or cells: E. coli
T1 sequence (O75417 1820-2590): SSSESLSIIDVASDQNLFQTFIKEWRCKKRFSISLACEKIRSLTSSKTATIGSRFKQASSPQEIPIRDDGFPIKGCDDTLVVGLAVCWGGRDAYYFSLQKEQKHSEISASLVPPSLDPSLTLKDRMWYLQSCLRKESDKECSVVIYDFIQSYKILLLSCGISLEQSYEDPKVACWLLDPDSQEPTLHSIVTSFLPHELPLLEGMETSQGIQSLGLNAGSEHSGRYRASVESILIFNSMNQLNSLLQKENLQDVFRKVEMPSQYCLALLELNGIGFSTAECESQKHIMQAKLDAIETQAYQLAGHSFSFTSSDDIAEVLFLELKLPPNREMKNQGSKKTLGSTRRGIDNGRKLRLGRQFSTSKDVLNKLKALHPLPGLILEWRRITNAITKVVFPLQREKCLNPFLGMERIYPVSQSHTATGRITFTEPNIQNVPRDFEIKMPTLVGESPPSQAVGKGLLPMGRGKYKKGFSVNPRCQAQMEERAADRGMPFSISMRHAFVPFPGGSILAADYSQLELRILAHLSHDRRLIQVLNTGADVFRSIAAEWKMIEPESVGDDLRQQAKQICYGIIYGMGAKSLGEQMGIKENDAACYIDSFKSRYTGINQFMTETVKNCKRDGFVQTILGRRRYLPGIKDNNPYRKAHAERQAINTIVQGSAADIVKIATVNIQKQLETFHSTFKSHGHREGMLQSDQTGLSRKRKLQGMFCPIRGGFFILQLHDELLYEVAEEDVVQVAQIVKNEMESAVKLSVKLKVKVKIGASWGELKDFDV
Assay: Polθ Polymerase Domain WT KI Assay (PicoGreen)
Format: biochemical
Conditions: 100 nM DNA substrate, 0.156 nM Polθ, initial rates vs inhibitor concentration
Method in brief: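 E. coli-expressed human Polθ polymerase domain (aa1820-2590) on annealed DNA II Short/Long primer-template (1.2:1), in 25 mM Tris pH 7.5, NaCl, 5% glycerol, 0.01% Triton X-100, 0.1 mg/ml BSA, 1 mM DTT, 1% DMSO. EDTA-quenched timepoints to 180 min, PicoGreen fluorescence. Initial rates vs inhibitor concentration fitted four-parameter for KI.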

Cc1cc(C(F)(F)F)cc(N2C(=O)C[C@@H]3CN(CCN4CCN(S(C)(=O)=O)CC4)c4c(C)cccc4N(C)C(=O)[C@H]32)n1 [Example 67, (3aR,11aS)-6,10-Dimethyl-1-(6-methyl-4-(trifluoromethyl)pyridin-2-yl)-5-(2-(4-(methylsulfonyl)piperazin-1-yl)ethyl)-1,3a,4,5,10,11a-hexahydro-2H-benzo[b]pyrrolo[2,3-f][1,4]diazocine-2,11(3H)-dione]
Ki: 0.598 nM

Cc1cc(C(F)(F)F)cc(N2C(=O)C[C@@H]3CN(CCCN4CCOCC4)c4c(F)cccc4N(C)C(=O)[C@H]32)n1 [Example 137, (3aR,11aS)-6-Fluoro-10-methyl-1-(6-methyl-4-(trifluoromethyl)pyridin-2-yl)-5-(3-morpholinopropyl)-1,3a,4,5,10,11a-hexahydro-2H-benzo[b]pyrrolo[2,3-f][1,4]diazocine-2,11(3H)-dione]
Ki: 10.1 nM
